Patent publication US12459899B2, “Isoquinolinone derivatives, method for preparing the same, and pharmaceutical composition for preventing or treating poly(ADP-ribose) polymerase-1-related diseases, comprising the same as active ingredient” (DIGMBIO. INC., priority 2019, dated 2025)
pIC50: −log10 of the molar value. Read-outs that look alike come from different tables or passages of the source.

Target: PARP-1 (poly[ADP-ribose] polymerase 1) enzyme (Homo sapiens (Human), UniProt P09874)
Assay: PARP-1 (poly[ADP-ribose] polymerase 1) enzyme inhibitory ability, Trevigen assay kit
Format: biochemical
Conditions: for pIC50: PARP-1 enzyme activity
Experimental: In order to evaluate the PARP-1 (poly[ADP-ribose] polymerase 1) enzyme inhibitory ability of the compounds according to the present invention, an experiment was conducted as follows.
Specifically, in order to evaluate the PARP-1 (poly[ADP-ribose] polymerase 1) enzyme inhibitory ability of the compounds of Examples 1 to 276 according to the present invention, the PARP-1 (poly[ADP-ribose] polymerase 1) activity was investigated in the following manner using an assay kit purchased from Trevigen, Inc. (Catalog number: 4677-096-K). 50 μL of 1×PARP buffer (provided by Trevigen's kit) was dispensed into a 96-well plate coated with histones per each well, and then rehydrated for 30 minutes. After removing the 1×PARP buffer present in the well, PARP-1 (poly[ADP-ribose] polymerase 1) enzyme (0.5 unit/well) and 1 μM concentration or various concentrations of the compounds of Example 1 to 276 were added at room temperature and reacted for 10 minutes. Thereafter, each well was treated with 25 μL of 1×PARP cocktail (biotinylated NAD, activated DNA, provided by Trevigen's kit), and then reacted at room temperature for 1 hour. After the reaction was completed, each well was washed twice with PBS (7.5 mM Na2HPO4, 2.5 mM NaH2PO4, 145 mM NaCl) containing 0.1% triton X-100, and washed twice with PBS. Then, 50 μL of strep-HRP (streptavidin-linked peroxidase) was added and reacted at room temperature for 1 hour, and then washed twice with PBS containing 0.1% triton X-100, and washed twice with PBS. After removing all PBS, 50 μL of TACS-sapphire, a substrate, was added, and reacted at room temperature for 15 minutes while blocking the light. After the reaction was terminated by treatment with 50 μL of 5% phosphoric acid to each well, the absorbance was measured at 450 nm using a microplate reader Victor3 from PerkinElmer, Inc. to quantify the value.

[1] = 1 nM compound, read-out: PAR P-1 Inhibitory ability at 1 nM

PARP-1 (poly[ADP-ribose] polymerase 1) enzyme, sequence (P09874 whole entry): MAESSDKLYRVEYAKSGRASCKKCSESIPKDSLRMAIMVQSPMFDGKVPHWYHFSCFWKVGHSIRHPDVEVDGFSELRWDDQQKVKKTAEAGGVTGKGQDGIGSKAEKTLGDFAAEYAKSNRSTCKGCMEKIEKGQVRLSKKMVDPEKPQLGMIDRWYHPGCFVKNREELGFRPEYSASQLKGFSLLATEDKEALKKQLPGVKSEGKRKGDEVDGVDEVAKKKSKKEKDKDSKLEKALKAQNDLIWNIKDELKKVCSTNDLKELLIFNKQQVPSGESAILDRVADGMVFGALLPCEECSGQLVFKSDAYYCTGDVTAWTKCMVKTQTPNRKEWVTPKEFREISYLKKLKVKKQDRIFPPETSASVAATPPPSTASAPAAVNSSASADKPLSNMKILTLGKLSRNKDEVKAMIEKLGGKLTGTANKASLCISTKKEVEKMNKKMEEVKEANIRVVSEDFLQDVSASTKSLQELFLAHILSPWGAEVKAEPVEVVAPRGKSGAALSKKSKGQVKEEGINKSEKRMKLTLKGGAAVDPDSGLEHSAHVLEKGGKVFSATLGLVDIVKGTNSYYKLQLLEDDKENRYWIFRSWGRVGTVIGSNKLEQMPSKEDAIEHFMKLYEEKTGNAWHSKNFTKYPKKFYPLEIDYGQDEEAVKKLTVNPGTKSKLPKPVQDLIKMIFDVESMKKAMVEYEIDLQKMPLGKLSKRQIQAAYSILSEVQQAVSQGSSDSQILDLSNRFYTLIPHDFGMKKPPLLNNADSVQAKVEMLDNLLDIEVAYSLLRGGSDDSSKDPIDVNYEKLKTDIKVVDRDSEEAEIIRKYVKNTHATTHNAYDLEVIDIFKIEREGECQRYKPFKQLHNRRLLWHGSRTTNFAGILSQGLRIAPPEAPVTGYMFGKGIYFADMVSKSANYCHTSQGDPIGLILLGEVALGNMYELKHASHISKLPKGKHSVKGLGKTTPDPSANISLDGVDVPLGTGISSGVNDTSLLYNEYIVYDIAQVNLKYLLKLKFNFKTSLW

| inhibition at 0.001 µM [1] [%] | Structure (SMILES) | pIC50 | inhibition at 0.001 µM (1 nM (Table 2), read-out: inhibited PARP-1 enzyme activity) [%] |
| --- | --- | --- | --- |
| < 50 | O=C(O)c1cccc(N2CCN(CCCc3cc4ccc(F)cc4c(=O)[nH]3)CC2)c1 [Example 19, 3-(4-(3-(7-fluoro-1-oxo-1,2-dihydroisoquinolin-3-yl)propyl)piperazin-1-yl)benzoic acid] | – | – |
| < 50 | CC(=O)Nc1cccc(N2CCN(CCCc3cc4ccc(F)cc4c(=O)[nH]3)CC2)c1 [Example 20, N-(3-(4-(3-(7-fluoro-1-oxo-1,2-dihydroisoquinolin-3-yl)propyl)piperazin-1-yl)phenyl)acetamide] | – | – |
| < 50 | Cc1ccc(F)c2c(=O)[nH]c(CCCN3CCN(c4ccc(C#N)nc4)CC3)cc12 [Example 21, 5-(4-(3-(8-fluoro-5-methyl-1-oxo-1,2-dihydroisoquinolin-3-yl)propyl)piperazin-1-yl)picolinonitrile] | 8.96 | – |
| < 50 | Cc1ccc(F)c2c(=O)[nH]c(CCCN3CCN(c4ccc(C#N)cn4)CC3)cc12 [Example 22, 6-(4-(3-(8-fluoro-5-methyl-1-oxo-1,2-dihydroisoquinolin-3-yl)propyl)piperazin-1-yl)nicotinonitrile] | 8.92 | – |
| < 50 | Cc1ccc(F)c2c(=O)[nH]c(CCCN3CCN(c4ccc(C#N)cc4)CC3)cc12 [Example 23, 4-(4-(3-(8-fluoro-5-methyl-1-oxo-1,2-dihydroisoquinolin-3-yl)propyl)piperazin-1-yl)benzonitrile] | 9.12 | – |
| < 50 | Cc1ccc(F)c2c(=O)[nH]c(CCCN3CCN(c4ccccn4)CC3)cc12 [Example 24, 8-fluoro-5-methyl-3-(3-(4-(pyridin-2-yl)piperazin-1-yl)propyl)isoquinolin-1(2H)-one] | – | – |
| < 50 | Cc1ccc(F)c2c(=O)[nH]c(CCCN3CCN(c4ncccn4)CC3)cc12 [Example 25, 8-fluoro-5-methyl-3-(3-(4-(pyrimidin-2-yl)piperazin-1-yl)propyl)isoquinolin-1(2H)-one] | – | – |
| 50 to 80 | Cc1ccc(F)c2c(=O)[nH]c(CCCN3CCN(c4ccc(C#N)cc4F)CC3)cc12 [Example 26, 3-fluoro-4-(4-(3-(8-fluoro-5-methyl-1-oxo-1,2-dihydroisoquinolin-3-yl)propyl)piperazin-1-yl)benzonitrile] | – | – |
| < 50 | Cc1ccc(F)c2c(=O)[nH]c(CCCN3CCN(c4ccc(C(F)(F)F)cc4)CC3)cc12 [Example 27, 8-fluoro-5-methyl-3-(3-(4-(4-(trifluoromethyl)phenyl)piperazin-1-yl)propyl)isoquinolin-1(2H)-one] | – | – |
| < 50 | Cc1ccc(F)c2c(=O)[nH]c(CCCN3CCN(c4ccccc4C#N)CC3)cc12 [Example 28, 2-(4-(3-(8-fluoro-5-methyl-1-oxo-1,2-dihydroisoquinolin-3-yl)propyl)piperazin-1-yl)benzonitrile] | – | – |
| < 50 | Cc1ccc(F)c2c(=O)[nH]c(CCCN3CCN(c4nccs4)CC3)cc12 [Example 29, 8-fluoro-5-methyl-3-(3-(4-(thiazole-2-yl)piperazin-1-yl)propyl)isoquinolin-1(2H)-one] | – | – |
| < 50 | Cc1cnc(N2CCN(CCCc3cc4c(C)ccc(F)c4c(=O)[nH]3)CC2)s1 [Example 30, 8-fluoro-5-methyl-3-(3-(4-(5-methylthiazole-2-yl)piperazin-1-yl)propyl)isoquinolin-1(2H)-one] | – | – |
| < 50 | Cc1ccc(F)c2c(=O)[nH]c(CCCN3CCN(c4ccc(Cl)cc4)CC3)cc12 [Example 33, 3-(3-(4-(4-chlorophenyl)piperazin-1-yl)propyl)-8-fluoro-5-methylisoquinolin-1(2H)-one] | – | – |
| < 50 | Cc1cc(F)cc2c(=O)[nH]c(CCCN3CCN(c4ccc(C#N)cc4)CC3)cc12 [Example 34, 4-(4-(3-(7-fluoro-5-methyl-1-oxo-1,2-dihydroisoquinolin-3-yl)propyl)piperazin-1-yl)benzonitrile] | – | – |
| < 50 | Cc1cc(F)cc2c(=O)[nH]c(CCCN3CCN(c4ccc(C#N)nc4)CC3)cc12 [Example 35, 5-(4-(3-(7-fluoro-5-methyl-1-oxo-1,2-dihydroisoquinolin-3-yl)propyl)piperazin-1-yl)picolinonitrile] | – | – |
| 50 to 80 | Cc1cc(F)cc2c(=O)[nH]c(CCCN3CCN(c4ccc(C#N)cn4)CC3)cc12 [Example 36, 6-(4-(3-(7-fluoro-5-methyl-1-oxo-1,2-dihydroisoquinolin-3-yl)propyl)piperazin-1-yl)nicotinonitrile] | – | – |
| < 50 | Cc1cc(F)cc2c(=O)[nH]c(CCCN3CCN(c4ccc(C#N)cc4F)CC3)cc12 [Example 37, 3-fluoro-4-(4-(3-(7-fluoro-5-methyl-1-oxo-1,2-dihydroisoquinolin-3-yl)propyl)piperazin-1-yl)benzonitrile] | – | – |
| < 50 | Cc1cc(F)cc2c(=O)[nH]c(CCCN3CCN(c4ccc(C#N)c(F)c4)CC3)cc12 [Example 38, 2-fluoro-4-(4-(3-(7-fluoro-5-methyl-1-oxo-1,2-dihydroisoquinolin-3-yl)propyl)piperazin-1-yl)benzonitrile] | – | – |
| < 50 | Cc1cc(F)cc2c(=O)[nH]c(CCCN3CCN(c4ccc(C(F)(F)F)cc4)CC3)cc12 [Example 39, 7-fluoro-5-methyl-3-(3-(4-(4-(trifluoromethyl)phenyl)piperazin-1-yl)propyl)isoquinolin-1(2H)-one] | – | – |
| 50 to 80 | Cc1cc(F)cc2c(=O)[nH]c(CCCN3CCN(c4ccc(F)cc4)CC3)cc12 [Example 40, 7-fluoro-3-(3-(4-(4-fluorophenyl)piperazin-1-yl)propyl)-5-methylisoquinolin-1(2H)-one] | – | – |

| Structure (SMILES) | inhibition at 0.001 µM [1] [%] | pIC50 | inhibition at 0.001 µM (1 nM (Table 2), read-out: inhibited PARP-1 enzyme activity) [%] |
| --- | --- | --- | --- |
| Cc1ccc(F)c2c(=O)[nH]c(CCCN3CC[C@H](c4ccc(F)cc4)C3)cc12 [Example 31, (R)-8-fluoro-3-(3-(3-(4-fluorophenyl)pyrrolidin-1-yl)propyl)-5-methylisoquinolin-1(2H)-one] | < 50 | – | – |
| Cc1ccc(F)c2c(=O)[nH]c(CCCN3CC[C@@H](c4ccc(F)cc4)C3)cc12 [Example 32, (S)-8-fluoro-3-(3-(3-(4-fluorophenyl)pyrrolidin-1-yl)propyl)-5-methylisoquinolin-1(2H)-one] | < 50 | – | – |
| N#Cc1ccc(C2=CCN(CCCc3cc4cccc(F)c4c(=O)[nH]3)CC2)cc1 [Example 41, 4-(1-(3-(8-fluoro-1-oxo-1,2-dihydroisoquinolin-3-yl)propyl)-1,2,3,6-tetrahydropyridin-4-yl)benzonitrile] | 50 to 80 | – | – |
| O=c1[nH]c(CCCN2CC=C(c3ccc(F)cc3)CC2)cc2cccc(F)c12 [Example 42, 8-fluoro-3-(3-(4-(4-fluorophenyl)-3,6-dihydropyridin-1(2H)-yl)propyl)isoquinolin-1(2H)-one] | 50 to 80 | – | – |
| O=c1[nH]c(CCCN2CC=C(c3ccc(F)nc3)CC2)cc2cccc(F)c12 [Example 43] | < 50 | – | – |
| O=c1[nH]c(CCCN2CC=C(c3ccc(F)cn3)CC2)cc2cccc(F)c12 [Example 44, 8-fluoro-3-(3-(5-fluoro-3′,6′-dihydro-[2,4′-bipyridine]-1′(2′H)-yl)propyl)isoquinolin-1(2H)-one] | < 50 | – | – |
| O=c1[nH]c(CCCN2CC=C(c3ccc(C(F)(F)F)cc3)CC2)cc2cccc(F)c12 [Example 45, 8-fluoro-3-(3-(4-(4-(trifluoromethyl)phenyl)-3,6-dihydropyridin-1(2H)-yl)propyl)isoquinolin-1(2H)-one] | 50 to 80 | – | – |
| N#Cc1ccc(C2=CCN(CCCc3cc4ccc(F)cc4c(=O)[nH]3)CC2)cc1 [Example 47, 4-(1-(3-(7-fluoro-1-oxo-1,2-dihydroisoquinolin-3-yl)propyl)-1,2,3,6-tetrahydropyridin-4-yl)benzonitrile] | > 80 | – | ≥ 80 |
| O=c1[nH]c(CCCN2CC=C(c3ccc(F)cc3)CC2)cc2ccc(F)cc12 [Example 48, 7-fluoro-3-(3-(4-(4-fluorophenyl)-3,6-dihydropyridin-1(2H)-yl)propyl)isoquinolin-1(2H)-one] | < 50 | 8.88 | – |
| O=c1[nH]c(CCCN2CC=C(c3ccc(Cl)cc3)CC2)cc2ccc(F)cc12 [Example 49, 3-(3-(4-(4-chlorophenyl)-3,6-dihydropyridin-1(2H)-yl)propyl)-7-fluoroisoquinolin-1(2H)-one] | < 50 | 8.45 | – |
| N#Cc1ccc(C2=CCN(CCCc3cc4ccc(F)cc4c(=O)[nH]3)CC2)nc1 [Example 50, 1′-(3-(7-fluoro-1-oxo-1,2-dihydroisoquinolin-3-yl)propyl)-1′,2′,3′,6′-tetrahydro-[2,4′-bipyridine]-5-carbonitrile] | < 50 | 8.73 | – |
| N#Cc1ccc(C2=CCN(CCCc3cc4ccc(F)cc4c(=O)[nH]3)CC2)cc1F [Example 52, 2-fluoro-4-(1-(3-(7-fluoro-1-oxo-1,2-dihydroisoquinolin-3-yl)propyl)-1,2,3,6-tetrahydropyridin-4-yl)benzonitrile] | < 50 | – | – |
